Here are results for four molecules from patent US6710045B2, “Heterocyclic fluoroalkenyl thioethers and the use thereof as pesticides (IV)” (priority 2003, dated 2004).

Molecules are shown by their SMILES.

Data set [1] is described as follows: logP determination by HPLC (EEC Directive 79/831 Annex V.A8). Type of data set: physicochemical. To be noted: for chromatographic logP: pH 2.3, HPLC gradient method, acetonitrile/0.1% aqueous phosphoric acid. The protocol: The logP values were determined in accordance with EEC Directive 79/831 Annex V.A8 by HPLC (gradient method, acetonitrile/0.1% aqueous phosphoric acid).

Data set [2] deals with Meloidogyne incognita egg/larvae. Put plainly: Meloidogyne test (gall formation on lettuce roots). Type of data set: in vivo. To be noted: active compound concentration 20 ppm; after 14 days. The protocol:
Containers are filled with sand, solution of active compound, Meloidogyne incognita egg/larvae suspension and lettuce seeds. The lettuce seeds germinate and the plants develop. On the roots, galls are formed.
After the desired period of time, the nematicidal action is determined in % using gall formation as a measure. 100% means that no galls were found; 0% means that the number of galls on the treated plants corresponds to that of the untreated control.

The test system of data set [3] is larvae of the mustard beetle (Phaedon cochleariae). Description: Phaedon larvae test (dipped cabbage leaves). To be noted: active compound concentration 0.1%; after 7 days.

In the case of `FC(F)=C(F)CCCCSc1nc2ccccc2s1` [Example 1, 2-(6,6,5-trifluorohex-5-enylthio)-benzothiazole], in data set [1], the chromatographic logP (in general, a lipophilicity value derived from retention on a column) stood at 4.83. Besides, the “nematicidal action (activity) using gall formation as a measure” value in data set [2] is 100%. Further, the kill in data set [3] came to 100%.

On to `O=S(=O)(CCCCC(F)=C(F)F)c1nc2ccccc2s1` [Example 3, 2-(6,6,5-trifluorohex-5-enylsulphonyl)-benzothiazole], for which, in data set [1], the chromatographic logP came to 3.36. Also, the “nematicidal action (activity) using gall formation as a measure” value in data set [2] was determined as 90%. On to `FC(F)=C(F)CCCCSc1ccc(-c2ccccc2Cl)nn1` [Example 16], for which, in data set [1], the “logP (pH 2)” value is 4.37. Same read-out and setting: the value for `FC(F)=C(F)CCCCSc1nc2cc(SC(F)(F)F)ccc2o1` [Example 17] was 5.62.
